Results on two compounds are retold here after publication PMC12305494, “Discovery of PXR Antagonist MI891 and PXR Degrader MI1013 and Their Roles in Hepatic Gene Regulation” (Journal of Medicinal Chemistry, 2025).

Bounds are passed on as bounds.

In one data set the target is T1, human CAR LBD (Homo sapiens, UniProt Q14994).
T1 construct: constructs encoding helices 3–12 and helix 1 of human CAR LBD; expressed in transfected cells; host or cells: HepG2
T1 sequence (Q14994 103-150 isoform Q14994-2 limits assumed): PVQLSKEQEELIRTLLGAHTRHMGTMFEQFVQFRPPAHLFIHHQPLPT
T1 sequence (Q14994 151-348 isoform Q14994-2 limits assumed): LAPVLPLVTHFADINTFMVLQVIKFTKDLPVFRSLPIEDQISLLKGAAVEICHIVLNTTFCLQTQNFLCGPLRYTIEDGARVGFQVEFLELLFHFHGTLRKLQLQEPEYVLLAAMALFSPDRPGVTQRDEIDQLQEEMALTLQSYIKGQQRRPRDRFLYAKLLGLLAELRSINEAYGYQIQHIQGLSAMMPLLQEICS
The experiment in a line: CAR LBD assembly assay (CAR AA). Format: cell-based. An excerpt: The CAR LBD assembly assay used constructs encoding helices 3–12 and helix 1 of human CAR LBD as described before. GL4.31[luc2P/GAL4UAS/Hygro] (pGAL4 UAS-luc) luciferase reporter vector and pRL-TK Renilla expression vector (Promega) were used in the assay in HepG2 cells transfected using Lipofectamine 3000.

The target in the next data set is T2, LXRα (Homo sapiens, UniProt Q13133).
T2 construct: expressed in transfected cells
T2 sequence (Q13133 209-447 limits assumed): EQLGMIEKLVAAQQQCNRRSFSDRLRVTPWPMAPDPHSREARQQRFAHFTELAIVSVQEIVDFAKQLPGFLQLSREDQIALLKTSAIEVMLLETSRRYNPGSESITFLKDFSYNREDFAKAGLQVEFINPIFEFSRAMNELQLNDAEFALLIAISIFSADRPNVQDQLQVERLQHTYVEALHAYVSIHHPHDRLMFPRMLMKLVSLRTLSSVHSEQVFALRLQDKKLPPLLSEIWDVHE
The data set can be described thus: LXRα luciferase reporter assay, agonistic and antagonistic setups. The following applies: prototype ligand GW3965. It is filed as cell-based. As to the method: (§1) For the farnesoid X receptor (FXR) luciferase gene reporter assay, the full-length expression vector was paired with pFXRE-luc luciferase construct. The p1A1-luc construct was used in the aryl hydrocarbon receptor (AhR) assays with pRL-TK for normalization. Gal4-LXR-α/β, and Gal4-PPAR-γ constructs were used with the pGAL4 UAS-luc construct. For the VDR assay, expression vector pSG5-hVDR together with pVDRE-luc constructs was used. Firefly and Renilla luciferase activities were analyzed using a Dual reporter assay (Promega). For the nuclear receptor assays, prototype ligands were used at the following concentrations: Calcitriol for VDR (100 nM), GW3965 for LXRα and LXRβ (10 μM), 6-OCA for FXR (1 μM), fenofibrate for PPARα (10 μM), estradiol for ERα and β (10 μM), rosiglitazone for PPARγ (10 μM), 3-MC for AhR (5 μM), and TCPOBOP for mCAR (10 μM). Detailed descriptions and protocols are detailed in our recent publication. ,
In general terms: A reporter such as luciferase makes a cellular process visible.

Another data set concerns the target AhR (Homo sapiens, UniProt P35869). The experiment in a line: AhR agonist reporter assay. The note with it: 10 µM MI891. It is filed as cell-based. On the procedure:
as §1, with “publication. , […]” for “publication. ,”
hydrophobic interactions. (F) Superimposed diagram of PXR bound with agonist (SJPYT-328) and antagonists (MI891 and SJPYT-331) to differentiate the agonist and antagonist interactions with helix 12 (H12). The interaction of the agonist with PXR residue (L428) is circled. (G) Extended nuclear receptor selectivity profile. […]

For data set [1], the target named is T3, PXR (Homo sapiens, UniProt O75469).
T3 sequence (O75469 1-434): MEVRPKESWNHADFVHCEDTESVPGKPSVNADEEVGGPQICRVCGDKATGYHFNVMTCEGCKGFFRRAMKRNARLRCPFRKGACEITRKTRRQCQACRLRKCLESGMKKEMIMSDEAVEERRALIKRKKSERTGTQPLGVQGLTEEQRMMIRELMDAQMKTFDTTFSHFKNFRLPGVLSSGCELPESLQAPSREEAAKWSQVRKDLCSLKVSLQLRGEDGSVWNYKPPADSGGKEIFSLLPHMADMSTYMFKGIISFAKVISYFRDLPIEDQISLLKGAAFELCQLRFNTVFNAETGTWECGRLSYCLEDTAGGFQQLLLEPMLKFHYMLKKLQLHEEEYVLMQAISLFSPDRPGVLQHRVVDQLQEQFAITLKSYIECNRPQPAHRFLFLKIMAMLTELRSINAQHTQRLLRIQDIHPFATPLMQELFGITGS
The note with it: HepG2, rifampicin 1 or 5 μM.

Data set [2] addresses T3, PXR. The data set can be described thus: PXR-responsive CYP3A4 promoter luciferase reporter assay in HepG2, agonist mode. It is filed as cell-based. Also on record: expressed in transfected cells; host or cells: HepG2. The following applies: HepG2, at concentrations up to 10 μM. As to the method: Rhesus monkey, mouse, and rat PXR expression vectors (100 ng/well each) were also obtained from GenScript. […] Carlberg (University of Kuopio, Kuopio, Finland).
The cells were cultured in DMEM medium (Merck) supplemented with 10% fetal bovine serum.

Chain of AhR (P35869 11-848, species assumed): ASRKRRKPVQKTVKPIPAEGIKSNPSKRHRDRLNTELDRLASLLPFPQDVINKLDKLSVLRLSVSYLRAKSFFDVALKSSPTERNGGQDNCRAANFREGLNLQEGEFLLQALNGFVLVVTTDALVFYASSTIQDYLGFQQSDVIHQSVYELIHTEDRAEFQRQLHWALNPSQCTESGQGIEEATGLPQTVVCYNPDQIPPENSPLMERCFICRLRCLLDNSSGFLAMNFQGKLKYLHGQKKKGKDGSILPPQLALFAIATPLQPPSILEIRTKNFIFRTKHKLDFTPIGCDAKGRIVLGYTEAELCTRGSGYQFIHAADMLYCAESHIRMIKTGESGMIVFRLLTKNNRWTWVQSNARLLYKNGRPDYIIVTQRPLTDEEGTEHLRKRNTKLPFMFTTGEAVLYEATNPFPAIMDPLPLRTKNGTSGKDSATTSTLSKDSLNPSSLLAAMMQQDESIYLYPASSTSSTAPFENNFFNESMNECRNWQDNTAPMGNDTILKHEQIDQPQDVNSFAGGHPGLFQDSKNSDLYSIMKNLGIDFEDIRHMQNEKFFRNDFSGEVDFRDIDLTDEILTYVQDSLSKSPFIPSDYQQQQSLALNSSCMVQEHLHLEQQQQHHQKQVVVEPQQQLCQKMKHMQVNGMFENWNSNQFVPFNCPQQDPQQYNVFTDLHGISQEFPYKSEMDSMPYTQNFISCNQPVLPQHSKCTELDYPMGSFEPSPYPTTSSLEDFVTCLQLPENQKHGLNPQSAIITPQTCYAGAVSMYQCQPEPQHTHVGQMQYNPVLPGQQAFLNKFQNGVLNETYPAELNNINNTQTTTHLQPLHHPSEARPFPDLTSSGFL

Broadly, the EC50 is the concentration giving half of the maximal effect. Turning to `NC(=O)c1cc(Cn2cc(-c3c(-c4ccc(Cl)cc4)nc4c(F)cc(F)cn34)nn2)ccc1Cl` [Compound 11, 2-Chloro-5-((4-(2-(4-chlorophenyl)-6,8-difluoroimidazo[1,2-a]pyridin-3-yl)-1H-1,2,3-triazol-1-yl)methyl)-benzamide], at human CAR LBD (at 10 μM concentration), the “activation of CAR LBD assembly” value is recorded as “lack of significant (p value 0.07) activation”. The EC50 on human CAR LBD (na = no activity, tox = cytotoxicity in HepG2 cells) is over 10 µM. For the same compound, at LXRα, the “agonistic or antagonistic activity on LXRα” value is listed as “no significant agonistic or antagonistic activities”. The “agonistic effect on AhR” value on AhR was “no agonistic effects”.

In the case of “N-(4-((1-(2,5-dimethoxyphenyl)-5-methyl-1H-1,2,3-triazol-4-yl)sulfonyl)phenyl)-3-(2-(2-(2-(4-(((2-(2,6-dioxopiperidin-3-yl)-1,3-dioxoisoindolin-4-yl)amino)methyl)-1H-1,2,3-triazol-1-yl)ethoxy)ethoxy)ethoxy)propenamide [Compound 36]”, at PXR [1], the “inhibition of PXR activation by rifampicin” value is recorded as “concentration-dependent inhibition of PXR activation by rifampicin”. For the same compound, the PXR agonistic activity entry on PXR [2] is “did not exhibit agonistic activity”.
